Experimental data reported in patent publication US20080075660A1, “Near infrared-fluorescence using phospholipid ether analog dyes in endoscopic applications” (Cellectar, LLC, priority 2006, published 2008).

Experiments:
colon tumors = assay: microPET/microCT imaging of I-124-NM404 in colon tumor model in rats (PIRC rat); assay type: in vivo
Text: FIG. 1 provides a 2D microCT projection of an excised PIRC rat colon filled with 2% barium (A) and ^124I-NM404 microPET image in a PIRC Rat (B) and the fused microPET/microCT image (C). Fiducial marker (M), Tumor (arrow).
Multiple tumors have been detected protruding into the colon lumen.

malignant tumors = settings: radiolabeled versions (such as I-124), known from earlier studies; cited from earlier work

- accumulation in excised colon on microPET image (colon tumors; PIRC rat colon with multiple tumors, microPET): one area of accumulation only
- accumulation in benign polyps (colon tumors; all other colon tumors, which turned out to be benign polyps): did not show accumulation
Structure (SMILES): C[N+](C)(C)CCOP(=O)([O-])OCCCCCCCCCCCCCCCCCCc1ccc(I)cc1 [NM404, 18-(p-Iodophenyl)octadecyl phosphocholine]
- accumulation in colon tumors, fused microCT/microPET image (colon tumors; adenocarcinoma versus other colon tumors): seen only in a tumor that later proved to be an adenocarcinoma
- accumulation in malignant versus benign tumors (malignant tumors): accumulate in malignant tumors, but not in benign tumors such as polyps
